From patent publication US9101638B2, “Boronic acid derivatives and therapeutic uses thereof” (Rempex Pharmaceuticals, Inc., priority 2013, dated 2015)
Where two headings read alike, the source gives them in different places.

Tests used:
[1] = target: CMY-2 (Klebsiella pneumoniae, UniProt Q48434); assay: Inhibition of nitrocefin cleavage by purified CMY-2; format: biochemical; details: nitrocefin reporter substrate, purified enzyme; read-out: Ki (CMY-2, NCF)
Outline: (§1)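 Readout: nitrocefin hydrolysis, A490 recorded every 10 sec over 10 min. Enzyme and inhibitor (varied concentrations) preincubated 10 min, RT, in reaction buffer before substrate addition.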

[2] = target: T1, Chymotrypsin (Bos taurus, UniProt P00766); assay: Serine protease inhibition: chymotrypsin; format: biochemical, mammalian; details: Table 8A, class symbols; read-out: IC50 Chymotrypsin
T1 construct: purchased Calbiochem 230832
Outline: (§2)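 Enzyme + inhibitor (various concns), enzyme-specific buffer, 10 min, 37° C; add matching substrate; read absorbance/fluorescence 30 min. Rates vs no-treatment control. AEBSF, leupeptin as positive controls.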

[3] = target: CTX-M-14 (Escherichia coli, UniProt Q9L5C7); assay: Inhibition of nitrocefin cleavage by purified CTX-M-14; format: biochemical; details: nitrocefin reporter substrate, purified enzyme; read-out: Ki (CTX-M-14, NCF)
Outline: as §1

[4] = test system: KP1005 (CTX-M-14); assay: Potentiation of aztreonam, strain KP1005; format: cell-based
[5] = test system: PAM1154/KPC-2; assay: Biapenem potentiation in PAM1154/KPC-2 (MexAB-OprM lacking); format: cell-based, Pseudomonas aeruginosa
Protocol: (§3) Efflux of BLIs from Pseudomonas aeruginosa by the MexAB-OprM efflux pump was also evaluated. […] Due to expression of KPC-2 both strains became resistant to biapenem. […] Potency of BLIs to potentiate biapenem in these strains was determined. […] The ratio of MPC64 values for each BLI in PAM1032/KPC-2 (efflux proficient) and PAM1154/KPC-2 (efflux deficient) was determined to generate the Efflux Index (EI).

[6] = target: OXA-48 (Klebsiella pneumoniae, UniProt Q6XEC0); assay: Inhibition of nitrocefin cleavage by purified OXA-48; format: biochemical; details: nitrocefin reporter substrate, purified enzyme; read-out: Ki (OXA-48, NCF)
Outline: as §1

[7] = test system: PAM1032/KPC-2; assay: Biapenem potentiation in PAM1032/KPC-2 (MexAB-OprM overexpressed); format: cell-based, Pseudomonas aeruginosa
Protocol: as §3

[8] = test system: ec302 (TEM-10); assay: Potentiation of aztreonam, strain ec302; format: cell-based
[9] = target: T2, HtrA2 (Homo sapiens, UniProt O43464); assay: Serine protease inhibition: HtrA2; format: biochemical, mammalian; details: Table 8B; read-out: IC50 HtrA2
T2 sequence (O43464 134-458): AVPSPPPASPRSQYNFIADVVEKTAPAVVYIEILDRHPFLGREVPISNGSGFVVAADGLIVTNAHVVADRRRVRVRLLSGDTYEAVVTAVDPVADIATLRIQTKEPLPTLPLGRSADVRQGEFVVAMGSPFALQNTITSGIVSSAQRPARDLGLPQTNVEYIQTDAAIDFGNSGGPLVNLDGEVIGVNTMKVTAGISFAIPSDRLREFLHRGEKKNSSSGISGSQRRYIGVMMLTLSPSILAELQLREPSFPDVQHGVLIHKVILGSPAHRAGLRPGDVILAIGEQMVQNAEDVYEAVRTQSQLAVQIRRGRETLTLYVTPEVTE
Protocol: The effect of selected BLIs on the enzymatic activity of some common mammalian serine proteases was evaluated.
50 μl of the diluted enzyme was mixed with 50 μl of inhibitor at various concentrations and 50 μl of corresponding buffer (Table 7). Reaction mixtures were incubated for 10 min at 37° C. Subsequently, 50 μl of corresponding substrate (Table 7) was added and absorbance or fluorescence was monitored for 30 min on SpectraMax M2 plate reader (Molecular Devices). 4-(2-Aminoethyl)benzenesulfonyl fluoride hydrochloride (AEBSF) and leupeptin were used as positive controls. Rates of reaction were calculated and presented relative to “no treatment” control.

[10] = test system: EC1010 (CMY-6); format: cell-based
[11] = target: T3, Neutrophil elastase (Homo sapiens, UniProt P08246); assay: Serine protease inhibition: neutrophil elastase; format: biochemical, mammalian; details: Table 8B; read-out: IC50 Neutrophil elastase
T3 construct: purchased Calbiochem 324681
T3 sequence (P08246 30-267): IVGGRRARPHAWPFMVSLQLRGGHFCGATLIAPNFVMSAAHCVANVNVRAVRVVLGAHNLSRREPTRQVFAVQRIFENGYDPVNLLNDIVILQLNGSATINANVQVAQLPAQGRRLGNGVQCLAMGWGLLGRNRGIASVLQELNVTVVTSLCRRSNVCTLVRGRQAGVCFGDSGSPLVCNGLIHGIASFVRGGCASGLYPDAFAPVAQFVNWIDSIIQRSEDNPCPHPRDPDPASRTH
Outline: as §2

[12] = target: KPC-2 (Klebsiella pneumoniae, UniProt Q9F663); assay: Inhibition of nitrocefin cleavage by purified KPC-2; format: biochemical; details: nitrocefin reporter substrate, purified enzyme; read-out: Ki (KPC-2, NCF)
Outline: as §1

[13] = target: T4, Urokinase (Homo sapiens, UniProt P00749); assay: Serine protease inhibition: urokinase; format: biochemical, mammalian; details: Table 8A, class symbols; read-out: IC50 Urokinase
T4 construct: purchased Calbiochem 672112
Outline: as §2

[14] = target: P99 (Enterobacter cloacae, UniProt P05364); assay: Inhibition of nitrocefin cleavage by purified P99; format: biochemical; details: nitrocefin reporter substrate, purified enzyme; read-out: Ki (P99, NCF)
Outline: as §1

[15] = test system: EC1010 (CMY-6); assay: Potentiation of aztreonam, strain EC1010; format: cell-based

Chain of CTX-M-14 (Q9L5C7 entry or part of it): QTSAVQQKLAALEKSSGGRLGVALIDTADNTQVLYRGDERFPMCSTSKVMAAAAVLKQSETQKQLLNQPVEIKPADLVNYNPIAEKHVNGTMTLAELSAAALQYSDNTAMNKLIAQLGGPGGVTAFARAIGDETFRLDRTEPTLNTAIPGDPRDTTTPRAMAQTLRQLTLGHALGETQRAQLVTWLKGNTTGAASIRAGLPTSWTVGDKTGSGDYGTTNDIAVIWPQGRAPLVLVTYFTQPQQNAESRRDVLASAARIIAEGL
Chain of OXA-48 (Q6XEC0 23-265 limits assumed): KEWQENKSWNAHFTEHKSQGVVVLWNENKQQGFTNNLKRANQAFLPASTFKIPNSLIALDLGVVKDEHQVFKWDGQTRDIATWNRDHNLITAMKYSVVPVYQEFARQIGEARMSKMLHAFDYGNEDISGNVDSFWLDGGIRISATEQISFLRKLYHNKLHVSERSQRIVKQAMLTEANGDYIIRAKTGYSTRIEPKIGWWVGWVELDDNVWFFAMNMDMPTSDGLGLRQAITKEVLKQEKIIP
Chain of CMY-2 (Q48434 21-381, species assumed): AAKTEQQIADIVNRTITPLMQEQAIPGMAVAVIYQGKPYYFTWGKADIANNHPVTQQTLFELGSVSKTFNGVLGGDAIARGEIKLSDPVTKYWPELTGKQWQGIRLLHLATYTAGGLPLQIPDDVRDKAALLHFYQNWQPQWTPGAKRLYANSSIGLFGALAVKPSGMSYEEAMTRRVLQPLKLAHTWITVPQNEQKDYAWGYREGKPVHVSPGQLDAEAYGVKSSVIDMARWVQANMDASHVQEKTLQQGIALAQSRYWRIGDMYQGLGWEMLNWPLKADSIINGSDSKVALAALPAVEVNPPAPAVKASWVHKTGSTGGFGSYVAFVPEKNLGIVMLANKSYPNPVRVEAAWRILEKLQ
Chain of KPC-2 (Q9F663 25-293, looked up, species assumed): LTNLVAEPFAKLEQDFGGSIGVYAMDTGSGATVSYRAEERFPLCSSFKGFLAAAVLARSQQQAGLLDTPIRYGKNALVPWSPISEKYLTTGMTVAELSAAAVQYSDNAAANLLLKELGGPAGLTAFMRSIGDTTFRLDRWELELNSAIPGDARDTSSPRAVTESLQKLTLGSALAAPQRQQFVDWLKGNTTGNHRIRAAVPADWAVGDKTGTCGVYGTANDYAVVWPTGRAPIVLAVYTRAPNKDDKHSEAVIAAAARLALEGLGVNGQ
Chain of P99 (P05364 21-381): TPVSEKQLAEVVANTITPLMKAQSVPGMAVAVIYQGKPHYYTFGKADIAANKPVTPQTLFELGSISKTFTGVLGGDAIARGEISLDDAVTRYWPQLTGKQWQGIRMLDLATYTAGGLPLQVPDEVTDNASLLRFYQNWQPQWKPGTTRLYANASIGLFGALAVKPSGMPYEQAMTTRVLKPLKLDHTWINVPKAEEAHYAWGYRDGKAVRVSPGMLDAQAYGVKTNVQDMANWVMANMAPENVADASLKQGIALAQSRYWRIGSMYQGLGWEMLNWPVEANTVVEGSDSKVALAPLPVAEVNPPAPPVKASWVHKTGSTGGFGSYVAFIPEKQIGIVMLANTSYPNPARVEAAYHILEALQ

| SMILES | Ki [1] [nM] | IC50 [2] [nM] | Ki [3] [nM] | AZT MPC4 CTX-M-14 KP1005 [4] | PAM1154/KPC-2 Biapenem MPC64 [5] | Ki [6] [nM] | PAM1032/KPC-2 Biapenem MPC64 ([7]; BLI potency to decrease biapenem MIC 64-fold, 32 to 0.5 μg/ml, efflux proficient strain) | AZT MPC4 TEM-10 ec302 [8] | IC50 [9] [nM] | TIG MPC4 CMY-6 EC1010 [10] | IC50 [11] [nM] | Ki [12] [nM] | IC50 [13] [nM] | Ki [14] [nM] | PAM1032/KPC-2 Biapenem MPC64 [7] | AZT MPC4 CMY-6 EC1010 [15] |
| --- | --- | --- | --- | --- | --- | --- | --- | --- | --- | --- | --- | --- | --- | --- | --- | --- |
| O=C(Cc1cccs1)N[C@H]1Cc2cccc(C(=O)O)c2OB1O [CPD A, reference compound] | < 1 | < 300000 | < 1 | Y (key: X = MIC of less than 1 μg/mL; Y = MIC of 1 μg/mL to 10 μg/mL; Z = MIC of greater than 10 μg/mL) | X (key: X = Less than 10; Y = 10 to 40; Z Greater than 40) | < 1 | Z (Z Greater than 40) | Y (key: X = MIC of less than 1 μg/mL; Y = MIC of 1 μg/mL to 10 μg/mL; Z = MIC of greater than 10 μg/mL) | > 500000 | X (key: X = MIC of less than 1 μg/mL; Y = MIC of 1 μg/mL to 10 μg/mL; Z = MIC of greater than 10 μg/mL) | 15000 to 500000 | > 10 | > 800000 | – | – | – |
| O=CN[C@H]1Cc2cccc(C(=O)O)c2OB1O [Compound 4, (R)-3-formamido-2-hydroxy-3,4-dihydro-2H-benzo[e][1,2]oxaborinine-8-carboxylic acid] | 1 to 10 | > 800000 | 1 to 10 | Y (key: X = MIC of less than 1 μg/mL; Y = MIC of 1 μg/mL to 10 μg/mL; Z = MIC of greater than 10 μg/mL) | X (key: X = Less than 10; Y = 10 to 40; Z Greater than 40) | 1 to 10 | – | Y (key: X = MIC of less than 1 μg/mL; Y = MIC of 1 μg/mL to 10 μg/mL; Z = MIC of greater than 10 μg/mL) | > 500000 | X (key: X = MIC of less than 1 μg/mL; Y = MIC of 1 μg/mL to 10 μg/mL; Z = MIC of greater than 10 μg/mL) | > 500000 | – | > 800000 | 1 to 10 | X (key: X = Less than 10; Y = 10 to 40; Z Greater than 40) | X (key: X = MIC of less than 1 μg/mL; Y = MIC of 1 μg/mL to 10 μg/mL; Z = MIC of greater than 10 μg/mL) |
